Laboratory results published in patent publication US8653049B2, “Normuramyl glycopeptide compounds” (priority 2008, dated 2014).
“Also recorded” adds a separate entry of the source.

Key:
[1] = test system: granulocyte-macrophage progenitor cells (GM-CFC); experiment: Colony stimulating activity (CSA) of serum on GM-CFC; type: in vivo, mouse; settings: liposomal compounds; FIG. 32
Description: Determination of Colony stimulating activity (CSA) and co-stimulating activity (CoSA) in serum: Blood was taken at intervals from 5 to 48 h after injection of the test compounds, and the ability of the sera from treated mice to stimulate in vitro growth of colonies from granulocyte-macrophage progenitor cells (GM-CFC) was determined. CoSA was determined as the ability of tested compounds, sera of treated mice, or conditioned medium from cultures of adherent stromal cells to enhance the number of GM-CFC colonies induced by a sub-optimal concentration of rmIL-3 in the above-described GM-CFC assay. The concentration of rmIL-3 was adjusted to a value which yielded one third of the maximum number of colonies on a dose-dependent curve.

[2] = test system: r-hsp90 (Candida albicans hsp90) specific IgG antibodies; experiment: Proteoliposome vaccine against C. albicans hsp90: antibody (humoral) response, ELISA; type: in vivo, BALB/c mice; settings: Experiment 12.2; liposomal compound (5%) + Ni-HSP90, boost day 14; FIG. 13
Description: (§1) Proteoliposomes were prepared by coupling recombinant hsp90 antigen (r-hsp90, 6×HISTag) via a metal chelating lipid to liposomes containing muramyl glycopeptide derivatives as adjuvant component. BALB/c […] mice 4 to 5 weeks old (female 20±2 g, 5 animal per group) were immunized by the intradermal route either with 20 μg of free or liposomal r-hsp90 (volume of 60 μl) either with or without L18-norAbu-MDP and boosted 21 days later by the same composition of experimental vaccine. FCA was used as positive control r-hsp90. Liposomal vaccine composition 20 μg of rHSP90 antigen, 5% metallochelating lipid, 5% particular MT analogue, 90% phospolipids.
Blood samples were collected from the tail vein into heparinised capillary PCV tubes. After centrifugation, the upper part of the tube, containing […] blood serum, was cut off, thrown into […] diluting solution and thoroughly shaken. Thus, a basic dilution of 1:33 was obtained. The pre-diluted sera were kept at −20° C. Blood samples were collected before the first immunization, 2 weeks thereafter and subsequently at weekly intervals up to the 4th week after the second immunisation. Specific IgG antibodies in blood serum samples were determined by the standard indirect ELISA procedure. The data obtained were processed statistically using the non-parametric Mann-Whitney U-test.
Proteoliposomes with muramyl glycopeptide derivatives were prepared as described above, but the boost was carried out already after 14 days. The liposomal vaccine composition was as for Experiment Set 1: 20 μg of rHSP90 antigen, 5% metallochelating lipid, 5% particular MT analogue, 90% phospolipids.
Controls: Aluminum hydroxide (AlOH) and Freund complete adjuvans (FCA) were used as positive controls. PBS with empty liposomes was used as negative control (control). Humoral response was tested at day 14 after vaccination (post priming) and at day 20 after vaccination (post booster). Antibody titres were wer assayed by ELISA.

[3] = test system: Friend leukemia virus (FLV); experiment: Friend leukemia virus infection: survival, TER-119+ cells, spleen; settings: day 16; FIG. 24
[4] = Survival after lethal irradiation (10 Gy); type: in vivo, mice (strain ICR); settings: 200 nmol s.c. 24 h before 10 Gy; FIG. 37
Description: Preparations (200 nmol of active substance) were applied to mice (strain ICR, female, 3 months of age, 10 mice per group) by s.c. route 24 h before irradiation (radiation dose of 10 Gy from a ^60Co gamma-ray source at a dose rate of 0.285 Gy/min). PBS and empty liposome served as negative controls, free and liposomal muramyl dipeptide (MDP) served as positive controls.

[5] = test system: NK-sensitive YAC1 target cells; experiment: NK cell-mediated cytotoxicity of spleen mononuclear cells, 51Cr-release against YAC1; settings: FLV-inoculated mice, day 16, 18 h incubation with YAC1; FIG. 26
Salmonella enteritidis = experiment: Stimulation of innate immunity against Salmonella Enteritidis; settings: for protective effect / survival rate in S. Enteritidis infection: 0 or 1 case of death by day 12; for Day 6 Intest.: clear/infected/dead / Day 6 Liver: clear/infected/dead / Day 6 Lungs: clear/infected/dead / Day 6 Spleen: clear/infected/dead / Day 12 Intest.: clear/infected/dead / Day 12 Liver: clear/infected/dead / Day 12 Lungs: clear/infected/dead / Day 12 Spleen: clear/infected/dead: liposomal, 20 nmol per dose p.o. 72 and 24 h before infection (LD50), 5 mice
[6] = test system: GM-CFC progenitors in bone marrow; experiment: GM-CFC recovery, test compounds before sub-lethal irradiation; type: in vivo, ICR/CD-1 mice; settings: s.c. 100 nmol 24 h before 6 Gy, day 13, FIGS. 33-35
Description: (§2) Institite of Cancer Research (ICR/CD-1) mice (female, age of 3 months, 3-4 per group) were stimulated by s.c. administration of test compounds (volume of 200 μl, 100 nmol per dose) 24 h before sublethal γ-irradiation (6 Gy, ^60Co γray source Chisostat, Chirana Ltd., Czech Republic, at a dose of 0.285 Gy/min.). Mice were sacrified at day 13 and recovery of GM-CFC in femour was assayed by counting of colonies (CFC) formed after cultivation in medium. Non-irradiated mice were used as control for normal GM-CFC count in femour. PBS and empty liposomes were used as controls for spontaneous recovery. Liposomal MDP was used as reference standard.
(§3) The following parameters of hemopoiesis were evaluated: • a) Blood leukocyte counts and bone marrow cellularity. Blood leukocytes (samples of blood drawn from an incision of the tail vein) and nucleated cell elements of the femoral bone marrow (femoral diaphyses flushed with saline) were estimated by means of Coulter Counter (Model ZN, Coulter Electronics). • b) Colony-forming cells in spleen. Endogenous spleen colony-forming units (E-CFUs) were measured on day 9 post the whole-body irradiation with 6.5 Gy (5 mice per group) according to Till and McCulloch. • c) GM-CFC progenitors in bone marrow. Femoral bone marrow cells were obtained from mice by flushing the femour with sterile IMDM medium. Harvested cells were calculated and diluted to 1.5×10^5 cells/ml and plated in triplicate in a semisolid environment created by plasma clot (Iscovess modification of Dulbecco's medium, 20% of fetal calf serum, 10% of colony-stimulating factor, 10% of citrate plasma, and CaCl2 1.5 mg/ml). The cultures were incubated for 7 days at 37° C. in 5% CO2. Colonies of at least 50 cells were scored at 40× magnification.
Statistical significance between individual experimental groups of mice in hemopoietic parameters was calculated by one-way analysis of variance. The Newman-Keuls test for comparison of all pairs of columns and the Dunnett test for comparison of all columns with the control column were used in the analysis.

[7] = rabbits, liposomal preparations s.c. 100 nmol/kg, 3 rabbits per group; passes if below 1.1° C.
Description: The test was conducted in an authorised laboratory, ITEST plus s.r.o., Bilé Vchýnice 10, 533 13 Vápno u Prelouce, Czech Republic, according to guide-lines CL 2005.
Rabbits (New Zeeland albino, 4-6 kg, 3 animals per group) were used for testing.
Liposomal preparations of muramyl glycopeptide derivatives were administered s.c. (100 nmol/kg). Empty liposomes were used as negative control and the liposomal as well as the free form of muramyl dipeptide (MDP) (25 μg/kg, corresponding to 50.7 nmol/kg) served as positive control. Temperature was measured in 1, 2, 3, 4,6 and 24 hour intervals.
Empty liposomes were used as negative control; and liposomal as well as free muramyl dipeptide (MDP) (50.7 nmol/kg) served as positive control. B30-norAbu-MDP (MT01, structure on page 5) served as additional control. Temperature was measured in 1, 2, 3, 4, 6 and 24 h intervals. The preparation passed the test if the Sum of ΔTmax remained below 1.1° C. (3 rabbits per group)

[8] = test system: NK sensitive K562 cell line; experiment: NK cell cytotoxicity of human PBMC, 51Cr-release against K562; type: cell-based; settings: for dose response of NK cell activity: range 0.1 μM-100 μM, FIG. 28
Description: Ex vivo effects of test compounds on NK cells were evaluated on human peripheral blood mononuclear cells (PBMC). The NK cell cytotoxicity of healthy donors in the presence or absence of test compounds was measured in standard 4 hrs ^51Cr-release assay against NK sensitive K562 cell line in effector (PBMC) to target (K562) ratio 16:1. Test compounds were added at a concentration of 10^−7 mol/ml.
Testing of compounds 23, 24, 32, 33, 40 and 41 for their capacity to induce cell-mediated cytotoxicity of human eripheral blood mononuclear cells (PBMCs) is shown in FIGS. 27 and 28. All donors were healthy. […] The cytotoxicity of untreated controls (30.5%) was renormalized to 100%.

[9] = test system: GM-CFC progenitors in bone marrow; experiment: GM-CFC recovery, test compounds after sub-lethal irradiation; type: in vivo, ICR/CD-1 mice; settings: s.c. 100 nmol 24 h after 6 Gy; FIG. 36
Description: as §2, §3
The method is exactly as described above except that the test compounds (volume of 200 μl, 100 nmol per dose) were administered 24 h after sublethal γ-irradiation (6 Gy).

[10] = test system: IFN-γ production in splenocytes stimulated by rHSP90; experiment: Proteoliposome vaccine against C. albicans hsp90: cellular response (IFN-γ in splenocytes stimulated by rHSP90); type: in vivo, BALB/c mice; settings: Experiment 12.3; liposomal compound (5%) + Ni-HSP90, day 20; FIG. 14
Description: as §1
Production of INF-γ was mesured by standard ELISPOT assay (R&D, USA). Immunised mice were sacrified 4 weeks after booster imunisation and splenocytes were isolated, and stimulated by r-hsp90 (50 μg/ml) and spots were counted.
Proteoliposomes with muramyl glycopeptide derivatives were prepared as described above. Experimental conditions were as for Experiment 12.2.
Cell mediated immune response against rHSP90 antigen formulated in liposomal experimental vaccine was tested at day 20 (6 days after booster). Mice were sacrificed, splenocytes were purified and production of IFN-γ in splenocytes stimulated by rHSP90 was assayed by flow cytometry.

| SMILES | GM-CFC stimulating activity (CSA) in serum [1] | antibody response to r-hsp90 proteoliposomes [2] | NK cell activity (cell-mediated cytotoxicity of SMCs) [5] | protective effect / survival rate in S. Enteritidis infection (Salmonella enteritidis) | Day 6 Intest.: clear/infected/dead (Salmonella enteritidis) | Day 6 Liver: clear/infected/dead (Salmonella enteritidis) | Day 6 Lungs: clear/infected/dead (Salmonella enteritidis) | Day 6 Spleen: clear/infected/dead (Salmonella enteritidis) | Day 12 Intest.: clear/infected/dead (Salmonella enteritidis) | Day 12 Liver: clear/infected/dead (Salmonella enteritidis) | Day 12 Lungs: clear/infected/dead (Salmonella enteritidis) | Day 12 Spleen: clear/infected/dead (Salmonella enteritidis) | +ΔTmax (Sum of ΔTmax) [7] [°C] | dose response of NK cell activity [8] | other results |
| --- | --- | --- | --- | --- | --- | --- | --- | --- | --- | --- | --- | --- | --- | --- | --- |
| CCCCCCCCCCCCCCCCCC(=O)NCCCC[C@H](NC(=O)CC[C@@H](NC(=O)[C@H](CC)NC(=O)CO[C@H]1[C@H](O)[C@@H](CO)OC(O)[C@@H]1NC(C)=O)C(N)=O)C(=O)O (stereo partly drawn) [Compound 32, N-[2-O-(2-Acetamido-2,3-dideoxy-α-D-glucopyranosid-3-yl)-glycoloyl]-L-α-aminobutanoyl-D-isoglutaminyl-L-lysine(stearoyl)] | substantially better | strong and comparable to AlOH | stimulate NK cell functional activity | good protective effects | 5/0/0 | 3/2/0 | 4/1/0 | 3/2/0 | 2/3/0 | 1/4/0 | 4/1/0 | 1/4/0 | 0.5 | negative dose response | clonal expansion of TER-119+ erythroleukaemia cells in spleen [3]: dose-dependent, positive effect; survival of lethally irradiated mice [4]: best compound; also recorded: best performance; GM-CFC progenitor cells in bone marrow [6]: strongest effect; GM-CFC progenitor cells in bone marrow ([6]; listed as compound 32): best compound; lag time to reach full NK stimulating activity ([8]; no vs 18 h pre-incubation): most pronounced |
| CCCCCCCCCCCCCCC(CCCCCCCCCCCCCC)C(=O)NCCCC[C@H](NC(=O)CC[C@@H](NC(=O)[C@H](CC)NC(=O)CO[C@H]1[C@H](O)[C@@H](CO)OC(O)[C@@H]1NC(C)=O)C(N)=O)C(=O)O (stereo partly drawn) [Compound 33, N-[2-O-(2-Acetamido-2,3-dideoxy-α-D-glucopyranosid-3-yl)-glycoloyl]-L-α-aminobutanoyl-D-isoglutaminyl-L-lysine(2-tetradecylhexadecanoyl)] | no effect | strong and comparable to AlOH | partially 33, had an inhibitory effect | good protective effects | 5/0/0 | 5/0/0 | 5/0/0 | 2/3/0 | 2/2/1 | 1/3/1 | 2/2/1 | 1/3/1 | 0.4 | positive dose response | GM-CFC progenitor cells in bone marrow [9]: strongest performers; cell-mediated response to r-hsp90 proteoliposomes [10]: good results |
